Reference: ChEMBL document CHEMBL5113458, “Structure-activity relationships of 2-pyrimidinecarbohydrazides as utrophin modulators for the potential treatment of Duchenne muscular dystrophy” (Bioorg Med Chem, 2022)
In brackets after ≈: the same amount, converted by molar mass.

Experiments:
[1] = Metabolic stability in mouse liver microsomes assessed as half life; type: ADME, Microsome
[2] = Semi-thermodynamic solubility of compound at pH 7.4; type: physicochemical; conditions: buffer, read-out: Therm_solubility
[3] = Metabolic stability in mouse liver microsomes assessed as intrinsic clearance per mg protein; type: ADME, Microsome; conditions: read-out: CLH
[4] = Metabolic stability in mouse hepatocytes assessed as intrinsic clearance per 10^6 cells; type: ADME, cell-based, Hepatocyte; conditions: read-out: CLH
[5] = Metabolic stability in mouse hepatocytes assessed as half life; type: ADME, cell-based, Hepatocyte
Utrophin (Mus musculus) = Utrophin (Mus musculus) (UniProt E9Q6R7); experiment: Modulation of mouse Utrophin in mouse H2K mdx cells assessed as fold increase in utrophin protein level at 0.1 to 10 uM incubated for 24 hrs by Western blot analysis; type: cell-based; conditions: filed as modulator, dose 0.1-10 µM
Chain of Utrophin (Mus musculus) (E9Q6R7 as listed by the source): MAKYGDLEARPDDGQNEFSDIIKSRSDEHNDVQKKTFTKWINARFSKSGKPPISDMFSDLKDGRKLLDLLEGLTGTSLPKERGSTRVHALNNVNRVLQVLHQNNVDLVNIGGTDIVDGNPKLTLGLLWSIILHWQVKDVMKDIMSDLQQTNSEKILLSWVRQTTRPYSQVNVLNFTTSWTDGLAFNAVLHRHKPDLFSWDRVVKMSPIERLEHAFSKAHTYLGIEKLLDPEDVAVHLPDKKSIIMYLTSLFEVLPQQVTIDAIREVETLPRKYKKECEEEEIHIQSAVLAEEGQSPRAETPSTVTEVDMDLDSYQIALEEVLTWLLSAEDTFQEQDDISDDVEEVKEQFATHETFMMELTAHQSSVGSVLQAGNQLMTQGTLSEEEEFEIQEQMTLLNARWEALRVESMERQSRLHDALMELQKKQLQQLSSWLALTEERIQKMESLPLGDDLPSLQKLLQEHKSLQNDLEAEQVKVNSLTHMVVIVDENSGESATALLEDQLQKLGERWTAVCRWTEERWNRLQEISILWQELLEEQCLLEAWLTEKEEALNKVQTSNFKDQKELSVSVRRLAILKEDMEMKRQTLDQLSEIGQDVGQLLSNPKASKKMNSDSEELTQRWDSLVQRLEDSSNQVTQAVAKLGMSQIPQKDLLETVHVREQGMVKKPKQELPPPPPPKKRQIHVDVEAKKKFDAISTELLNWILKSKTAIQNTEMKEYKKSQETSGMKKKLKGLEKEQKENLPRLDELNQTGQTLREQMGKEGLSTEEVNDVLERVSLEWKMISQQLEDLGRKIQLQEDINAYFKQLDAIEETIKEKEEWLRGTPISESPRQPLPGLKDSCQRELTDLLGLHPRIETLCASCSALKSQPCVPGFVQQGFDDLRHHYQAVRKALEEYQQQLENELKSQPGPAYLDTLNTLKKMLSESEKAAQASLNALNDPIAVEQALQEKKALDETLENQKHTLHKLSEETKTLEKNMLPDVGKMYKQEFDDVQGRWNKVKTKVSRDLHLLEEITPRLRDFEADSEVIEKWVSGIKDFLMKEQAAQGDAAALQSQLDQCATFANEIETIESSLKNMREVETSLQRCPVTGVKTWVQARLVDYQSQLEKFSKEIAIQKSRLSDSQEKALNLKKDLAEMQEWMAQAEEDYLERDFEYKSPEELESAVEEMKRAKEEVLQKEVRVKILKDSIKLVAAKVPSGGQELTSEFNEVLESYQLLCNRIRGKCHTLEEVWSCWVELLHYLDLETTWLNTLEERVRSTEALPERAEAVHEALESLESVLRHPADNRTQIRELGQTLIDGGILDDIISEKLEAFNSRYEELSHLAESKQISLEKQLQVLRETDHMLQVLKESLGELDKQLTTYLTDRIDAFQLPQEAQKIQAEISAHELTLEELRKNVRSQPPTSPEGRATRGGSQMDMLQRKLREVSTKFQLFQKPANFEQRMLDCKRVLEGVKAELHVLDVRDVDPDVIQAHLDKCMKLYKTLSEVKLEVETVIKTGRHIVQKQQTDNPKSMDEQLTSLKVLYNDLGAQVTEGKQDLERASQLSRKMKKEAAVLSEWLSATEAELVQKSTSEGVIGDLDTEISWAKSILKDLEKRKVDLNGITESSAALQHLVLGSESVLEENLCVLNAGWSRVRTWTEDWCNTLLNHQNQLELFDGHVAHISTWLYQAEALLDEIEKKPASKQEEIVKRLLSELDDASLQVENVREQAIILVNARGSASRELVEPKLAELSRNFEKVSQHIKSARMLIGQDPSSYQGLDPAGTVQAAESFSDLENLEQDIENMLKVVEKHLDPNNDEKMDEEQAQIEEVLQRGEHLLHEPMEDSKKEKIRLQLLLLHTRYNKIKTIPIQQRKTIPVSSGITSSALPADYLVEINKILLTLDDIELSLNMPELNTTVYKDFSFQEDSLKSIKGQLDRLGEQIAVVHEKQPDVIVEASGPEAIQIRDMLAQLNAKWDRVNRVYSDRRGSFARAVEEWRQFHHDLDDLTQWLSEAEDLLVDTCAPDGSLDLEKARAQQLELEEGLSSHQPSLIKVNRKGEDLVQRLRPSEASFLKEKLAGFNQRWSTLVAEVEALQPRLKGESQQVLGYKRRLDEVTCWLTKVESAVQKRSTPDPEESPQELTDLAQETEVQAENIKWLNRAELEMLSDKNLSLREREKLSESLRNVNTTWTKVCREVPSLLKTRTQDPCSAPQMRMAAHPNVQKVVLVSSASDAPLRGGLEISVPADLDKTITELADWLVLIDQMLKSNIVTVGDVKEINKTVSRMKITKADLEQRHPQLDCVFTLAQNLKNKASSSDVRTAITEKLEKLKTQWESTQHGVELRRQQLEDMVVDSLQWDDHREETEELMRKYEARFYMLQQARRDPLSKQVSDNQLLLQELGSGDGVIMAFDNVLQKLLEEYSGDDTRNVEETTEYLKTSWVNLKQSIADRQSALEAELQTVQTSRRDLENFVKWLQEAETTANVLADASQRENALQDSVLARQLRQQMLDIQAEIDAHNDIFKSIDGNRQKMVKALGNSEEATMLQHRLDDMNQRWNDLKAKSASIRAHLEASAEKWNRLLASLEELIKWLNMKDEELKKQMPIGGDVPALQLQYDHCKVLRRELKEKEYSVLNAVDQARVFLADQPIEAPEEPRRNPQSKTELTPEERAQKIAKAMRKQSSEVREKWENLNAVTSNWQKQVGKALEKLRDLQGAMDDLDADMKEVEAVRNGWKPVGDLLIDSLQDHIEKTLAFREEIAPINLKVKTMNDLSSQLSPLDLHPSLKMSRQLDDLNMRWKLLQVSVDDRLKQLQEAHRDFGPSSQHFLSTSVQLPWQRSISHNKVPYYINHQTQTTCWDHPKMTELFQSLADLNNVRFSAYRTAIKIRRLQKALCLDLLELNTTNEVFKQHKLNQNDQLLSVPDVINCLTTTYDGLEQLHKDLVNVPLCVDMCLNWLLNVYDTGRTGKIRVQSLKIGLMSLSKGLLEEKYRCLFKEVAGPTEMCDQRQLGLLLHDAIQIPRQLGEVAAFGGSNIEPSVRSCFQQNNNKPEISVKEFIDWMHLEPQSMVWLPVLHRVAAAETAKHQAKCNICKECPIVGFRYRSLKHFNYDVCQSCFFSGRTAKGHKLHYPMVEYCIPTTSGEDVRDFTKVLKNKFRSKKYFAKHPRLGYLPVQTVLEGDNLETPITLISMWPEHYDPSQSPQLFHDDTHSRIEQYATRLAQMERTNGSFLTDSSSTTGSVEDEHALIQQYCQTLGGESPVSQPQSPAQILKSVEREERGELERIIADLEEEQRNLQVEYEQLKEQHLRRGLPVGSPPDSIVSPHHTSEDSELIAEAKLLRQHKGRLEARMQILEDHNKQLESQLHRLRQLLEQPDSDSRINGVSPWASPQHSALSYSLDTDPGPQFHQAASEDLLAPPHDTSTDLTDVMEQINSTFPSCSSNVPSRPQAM

SMILES: NNC(=O)c1nc(-c2ccccc2)cc(-c2ccc(C(F)(F)F)nc2)n1
- half-life [1]: 7.57 h
- solubility thermodynamic [2]: 200 µM (≈ 71.9 µg/mL)
- microsomal CLint [3]: 1.53 µL/min/mg
- hepatocyte CLint [4]: 13 µL/min/1e6 cells
- half-life [5]: 1.77 h
- FC (Utrophin (Mus musculus)): 2.5
